A value given as a limit tells only on which side of the number the result lay.

This is an account of results in patent publication US9556217B2, “Amphiphilic compounds” (WISCONSIN ALUMNI RESEARCH FOUNDATION, priority 2012, dated 2017).

For test [1], the system named is membrane proteins. The experiment in a line: Retention of extracted membrane proteins in soluble form in micelles (summary). An excerpt:
The amphiphiles were thus evaluated as membrane protein solubilizers and stabilizers and they compared very favorably with DDM, a standard reagent in the field. Compared to DDM, for example, one of the evaluated amphiphiles forms micelles at one-tenth of the concentration required for DDM. Compared with DDM, GDN performs similarly for extracting membrane proteins from membranes, and stably retains the proteins in a soluble form within the micelles for substantially longer (>3 weeks) than DDM. Such improved stability (without sacrificing extraction efficiency) is a valuable trait for research tool amphiphiles.
The amphiphiles described herein require lower concentrations than many commonly used surfactants to form stable micelles.

The target of test [2] is T1, β2AR WT (Homo sapiens, UniProt P07550).
T1 construct: made in house; host or cells: Sf9 insect cells (baculovirus); lysed cells and membranes extracted directly with amphiphile
T1 sequence (P07550 whole entry): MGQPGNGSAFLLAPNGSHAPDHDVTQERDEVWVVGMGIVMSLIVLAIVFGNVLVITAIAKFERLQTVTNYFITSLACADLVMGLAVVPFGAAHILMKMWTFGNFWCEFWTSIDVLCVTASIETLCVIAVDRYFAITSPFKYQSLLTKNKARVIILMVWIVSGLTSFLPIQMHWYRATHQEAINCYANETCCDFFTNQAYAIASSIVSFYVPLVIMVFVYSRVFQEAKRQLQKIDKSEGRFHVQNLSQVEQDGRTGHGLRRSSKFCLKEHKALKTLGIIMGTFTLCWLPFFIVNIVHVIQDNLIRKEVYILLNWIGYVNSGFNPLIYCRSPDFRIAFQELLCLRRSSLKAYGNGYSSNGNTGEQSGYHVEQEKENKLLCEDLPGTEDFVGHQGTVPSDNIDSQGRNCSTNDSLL
The experiment in a line: Extraction of β2AR WT from insect cell membranes. The following applies: 1 or 2 wt %; western blotting. The protocol: The favorable MelB extraction performance of GDN led to the examination of this amphiphile for extraction of other IMPs. […] DDM and GDN were used to extract a CMP-Sia fusion protein bearing green fluorescent protein (GFP) at the C-terminus, after expression in Saccharomyces cerevisiae; the amount of solubilized protein was estimated by total fluorescence. GDN (2 wt %), DDM (1 wt %) and OG (1 wt %) gave ˜70%, ˜80% and ˜50% extraction yields, respectively.
The procedure was performed according to the protocol reported by Chae and coworkers (Nat. Methods 2010, 7, 1003-1008).
A gene encoding amino-terminally FLAG epitope tagged β2AR was expressed in Sf9 cells by baculovirus, with no ligand present during culture. Cells were infected at a density of 4×10^6 cells/mL and then cultured for 48 hours prior to harvesting by centrifugation. Cells were resuspended and lysed by osmotic shock with a low ionic strength buffer (20 mM Tris pH 7.5, 1 mM EDTA). The lysed cells were aliquoted 35 mg per aliquot, then frozen. For extraction tests, 300 μL of solubilization buffer (20 mM HEPES pH 7.5, 100 mM NaCl) containing each amphiphile was added to each aliquot, which was then homogenized by pipet followed by grinding with a glass dounce tissue homogenizer. After two-hour incubation at 4° C., samples were centrifuged at maximum speed in a tabletop microcentrifuge to pellet insoluble material. […]
(Immunoblotting shows a protein as a band on a membrane.)

Regarding `CCCCCCCCCCCCO[C@@H]1O[C@H](CO)[C@@H](O[C@H]2O[C@H](CO)[C@@H](O)[C@H](O)[C@H]2O)[C@H](O)[C@H]1O` [DDM, dodecyl-β-D-maltoside, reference compound], the “Time until stabilized protein activity began to decay” value in test [1] is given as “a few hours or a few days”.

Regarding `C[C@@H]1CC[C@@]2(OC1)O[C@H]1C[C@H]3[C@@H]4CC=C5C[C@@H](OCCC(CO[C@@H]6OC(CO)[C@@H](O[C@H]7OC(CO)[C@@H](O)C(O)C7O)C(O)C6O)CO[C@@H]6OC(CO)[C@@H](O[C@H]7OC(CO)[C@@H](O)C(O)C7O)C(O)C6O)CC[C@]5(C)[C@H]4CC[C@]3(C)[C@@H]1[C@@H]2C` (stereo partly drawn) [GDN, glyco-diosgenin], the “β2AR WT extraction compared with 1 wt % DDM” value in test [2] is “more effective than was 1 wt % DDM”. The “Time proteins are stably retained in soluble form within the micelles” value in test [1] is reported as over 3 weeks.
